Assay results as given in patent US20240245711A1, “A 19-NOR C3,3-DISUBSTITUTED C21-N-PYRAZOLYL STEROID FOR THE TREATMENT OF MAJOR DEPRESSIVE DISORDER” (Sage Therapeutics, Inc., priority 2021, published 2024).

Test system: post-menopausal women with MDD
Assay: Post hoc analysis of the Example 1 study: post-menopausal women with MDD
Type: in vivo, human
Description: Hormonal changes during early menopause can often affect the metabolism of antidepressants (ADTs). Postmenopausal/older women may not respond well to ADTs. This example presents a post hoc analysis of the study described in Example 1 in post-menopausal women with MDD.
The study described in Example 1 enrolled patients with MDD, aged 18-75 years, with HAMD-17≥20 and a MADRS total score ≥28 to 1 of 2 cohorts: 30-mg Cohort and 50-mg Cohort. HAMD-17 responders (≥50% reduction from baseline) at Day 15 continued in study and were assessed for repeat-treatment eligibility. Post-menopausal women aged ≥45 were identified based on follicle stimulating hormone >40 at baseline (central lab data) and if medical history coded terms contained ‘menopause’.

[1] = Day 15, post-menopausal patients

C[C@@]1(O)CC[C@H]2[C@H](CC[C@@H]3[C@@H]2CC[C@]2(C)[C@@H](C(=O)Cn4cc(C#N)cn4)CC[C@@H]32)C1 [Compound (1), 1-(2-((3R,5R,8R,9R,10S,13S,14S,17S)-3-hydroxy-3,13-dimethylhexadecahydro-1H-cyclopenta[a]phenanthren-17-yl)-2-oxoethyl)-1H-pyrazole-4-carbonitrile]
Patients not requiring additional courses during their time in the study (106/152 post-menopausal patients who responded to and completed treatment cycle 1): 42.5%
HAMD-17 remission rate [1]: 39.6%
HAMD-17 response rate [1]: 75.7%
Mean (SD) CFB in HAMD-17 [1]: −16.0 (7.00)
TEAE diarrhea (post-menopausal patients): 7.9%
TEAE dizziness (post-menopausal patients): 11.8%
TEAE dry mouth (post-menopausal patients): 7.2%
TEAE headache (post-menopausal patients): 13.2%
TEAE insomnia (post-menopausal patients): 6.6%
TEAE sedation (post-menopausal patients): 6.6%
TEAE somnolence (post-menopausal patients): 12.5%
TEAE upper respiratory infection (post-menopausal patients): 7.9%
TEAEs leading to discontinuation of study drug (post-menopausal patients (8/152)): 5.3%
TEAEs leading to withdrawal from the study (post-menopausal patients (9/152)): 5.9%
TEAEs leading to dose reduction (post-menopausal patients (16/152)): 10.5%
Share of patients with TEAEs that were mild or moderate (post-menopausal patients (90/102)): 88.2%
Patients with at least 1 TEAE over the study duration (post-menopausal patients (102/152)): 67.1%
Mean (range) number of total treatment courses (post-menopausal patients, cycle 1 responders): 2.2 (1-5)
Tolerability (post-menopausal women): generally well-tolerated
